Measured values: ChEMBL document CHEMBL1201862, “PubChem BioAssay data set” (2004)
The source made the active and inactive calls.

Key:
[1] = target: Lysosomal acid glucosylceramidase (Homo sapiens, UniProt P04062); assay: Dose response cell-based high throughput screening assay to identify enhancers of beta-glucosidase activity. [Related pubchem assays: 784 ]; type: functional
[2] = Counterscreen for IDE inhibitors: Luminescence-based cell-based high throughput dose response assay to identify compounds that are cytotoxic to HEK cells. [Related pubchem assays: 434962 (Primary screen (IDE inhibitors in singlicate)), 449730 (Counterscreen (Cytotoxicity in triplicate)), 435028 (Confirmation (IDE inhibitors in triplicate)) …; type: functional; details: HEK293
Insulin-degrading enzyme = target: T1, Insulin-degrading enzyme (Homo sapiens, UniProt P14735); assay: Dose Response: Fluorescence polarization-based cell-based high throughput dose response assay for inhibitors of insulin-degrading enzyme (IDE). [Related pubchem assays: 434962 (Primary screen (IDE inhibitors in singlicate)), 449730 (Counterscreen (Cytotoxicity in triplicate)), 435028 (Confirmation (IDE inhibitors in triplicate)), 434984 (Summary …; type: functional
T1 sequence (P14735 whole entry): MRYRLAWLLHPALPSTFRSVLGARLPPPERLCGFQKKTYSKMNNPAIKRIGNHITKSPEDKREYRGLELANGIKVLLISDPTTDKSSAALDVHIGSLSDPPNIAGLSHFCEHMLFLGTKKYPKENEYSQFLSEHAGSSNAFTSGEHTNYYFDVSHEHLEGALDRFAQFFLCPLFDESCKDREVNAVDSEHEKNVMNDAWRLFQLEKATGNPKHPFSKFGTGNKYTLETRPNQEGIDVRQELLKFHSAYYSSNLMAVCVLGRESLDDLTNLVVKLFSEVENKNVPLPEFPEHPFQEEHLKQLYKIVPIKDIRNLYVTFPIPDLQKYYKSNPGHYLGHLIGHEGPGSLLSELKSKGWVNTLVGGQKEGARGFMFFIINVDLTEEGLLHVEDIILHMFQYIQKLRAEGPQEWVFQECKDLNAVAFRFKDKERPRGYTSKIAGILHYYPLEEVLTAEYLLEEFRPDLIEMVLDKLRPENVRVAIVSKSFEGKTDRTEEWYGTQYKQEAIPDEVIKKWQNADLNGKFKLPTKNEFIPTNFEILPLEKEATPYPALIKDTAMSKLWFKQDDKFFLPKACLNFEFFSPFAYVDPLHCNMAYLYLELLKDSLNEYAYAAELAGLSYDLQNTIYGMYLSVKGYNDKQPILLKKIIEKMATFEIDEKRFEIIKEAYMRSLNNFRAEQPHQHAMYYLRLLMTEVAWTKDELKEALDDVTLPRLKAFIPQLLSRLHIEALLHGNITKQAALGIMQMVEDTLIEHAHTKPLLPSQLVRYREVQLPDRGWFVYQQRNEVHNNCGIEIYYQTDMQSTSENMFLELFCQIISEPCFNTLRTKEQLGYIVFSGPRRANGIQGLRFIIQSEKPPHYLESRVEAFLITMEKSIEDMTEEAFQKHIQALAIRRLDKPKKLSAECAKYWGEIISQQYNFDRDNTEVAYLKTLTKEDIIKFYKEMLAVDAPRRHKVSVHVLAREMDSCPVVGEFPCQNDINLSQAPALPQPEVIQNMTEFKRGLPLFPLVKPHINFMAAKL

[3] = target: T2, Corticotropin-releasing factor receptor 2/Corticotropin-releasing factor-binding protein (Homo sapiens, UniProt P24387+Q13324); assay: activators of CRF receptor 2 with binding protein – uHTS hits, confirmation (AID 602473); type: functional; details: read-out: EC50_Mean
T2 sequence (Q13324 whole entry): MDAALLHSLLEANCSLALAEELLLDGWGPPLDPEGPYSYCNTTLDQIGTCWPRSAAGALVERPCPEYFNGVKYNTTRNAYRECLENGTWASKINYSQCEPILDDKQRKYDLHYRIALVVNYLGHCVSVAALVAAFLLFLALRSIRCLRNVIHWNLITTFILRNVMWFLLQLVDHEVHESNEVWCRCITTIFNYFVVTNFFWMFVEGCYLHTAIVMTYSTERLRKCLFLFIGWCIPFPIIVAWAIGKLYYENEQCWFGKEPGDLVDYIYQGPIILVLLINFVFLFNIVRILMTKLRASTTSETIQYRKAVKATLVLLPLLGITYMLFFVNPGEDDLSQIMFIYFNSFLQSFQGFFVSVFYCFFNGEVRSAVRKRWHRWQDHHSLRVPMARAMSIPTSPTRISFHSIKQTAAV
T2 sequence (P24387 whole entry): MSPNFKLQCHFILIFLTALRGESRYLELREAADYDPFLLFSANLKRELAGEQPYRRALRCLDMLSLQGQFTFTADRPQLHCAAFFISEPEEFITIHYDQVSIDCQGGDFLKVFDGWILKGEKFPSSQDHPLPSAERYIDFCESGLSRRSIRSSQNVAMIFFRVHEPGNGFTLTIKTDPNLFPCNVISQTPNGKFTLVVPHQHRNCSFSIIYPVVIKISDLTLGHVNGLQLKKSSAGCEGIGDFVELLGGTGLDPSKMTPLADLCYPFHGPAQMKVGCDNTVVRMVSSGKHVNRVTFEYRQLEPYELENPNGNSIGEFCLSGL

[4] = test system: Streptococcus sp. 'group A'; assay: Streptococcus pyogenes SK(-)GAS viability under kanamycin – luminescence, BacTiterGlo, confirmation, counter-screen for streptokinase expression inhibitor project, dose response (AID 1900); type: functional, organism-based
[5] = target: T3, Neuropeptide Y receptor type 2 (Homo sapiens, UniProt P49146); assay: IC50 for human NPY-Y2 blockade – cell-based, counter-screen for NPY-Y1 antagonist project, dose response (AID 1278); type: functional
T3 sequence (P49146 whole entry): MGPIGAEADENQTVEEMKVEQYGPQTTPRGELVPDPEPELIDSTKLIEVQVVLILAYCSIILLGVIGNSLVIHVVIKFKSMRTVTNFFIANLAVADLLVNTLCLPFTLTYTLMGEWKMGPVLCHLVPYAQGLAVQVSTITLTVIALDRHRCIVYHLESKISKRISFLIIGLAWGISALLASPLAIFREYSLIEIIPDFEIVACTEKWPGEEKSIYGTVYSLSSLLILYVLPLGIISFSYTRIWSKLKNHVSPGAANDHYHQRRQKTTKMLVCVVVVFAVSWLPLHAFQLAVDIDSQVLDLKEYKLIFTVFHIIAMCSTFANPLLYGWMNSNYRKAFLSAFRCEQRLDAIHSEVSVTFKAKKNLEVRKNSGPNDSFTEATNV

Streptokinase A = target: T4, Streptokinase A (Streptococcus pyogenes serotype M1, UniProt P10520); assay: viability-normalized secreted streptokinase activity reduction – plasminogen activation absorbance, OD405, dose response (AID 1914); type: functional, Streptococcus pyogenes M1 GAS;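 also: secreted streptokinase activity via plasminogen activation per viability signal from cell pellet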
T4 sequence (P10520 whole entry): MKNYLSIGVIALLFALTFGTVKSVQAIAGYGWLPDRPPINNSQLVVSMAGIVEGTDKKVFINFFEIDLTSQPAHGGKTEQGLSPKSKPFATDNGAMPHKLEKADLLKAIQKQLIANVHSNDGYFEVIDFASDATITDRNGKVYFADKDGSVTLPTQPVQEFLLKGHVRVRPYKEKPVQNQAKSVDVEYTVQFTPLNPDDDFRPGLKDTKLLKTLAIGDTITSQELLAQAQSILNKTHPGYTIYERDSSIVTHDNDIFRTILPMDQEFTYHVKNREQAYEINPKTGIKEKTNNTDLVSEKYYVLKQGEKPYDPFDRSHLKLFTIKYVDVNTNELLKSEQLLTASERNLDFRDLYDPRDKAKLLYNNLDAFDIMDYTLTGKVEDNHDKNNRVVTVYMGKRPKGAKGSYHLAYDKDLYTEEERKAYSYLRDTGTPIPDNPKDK

[6] = target: T5, Neuropeptide Y receptor type 1 (Homo sapiens, UniProt P25929); assay: IC50 of human NPY-Y1 blockers – cell-based, dose response (AID 1277); type: functional
T5 sequence (P25929 whole entry): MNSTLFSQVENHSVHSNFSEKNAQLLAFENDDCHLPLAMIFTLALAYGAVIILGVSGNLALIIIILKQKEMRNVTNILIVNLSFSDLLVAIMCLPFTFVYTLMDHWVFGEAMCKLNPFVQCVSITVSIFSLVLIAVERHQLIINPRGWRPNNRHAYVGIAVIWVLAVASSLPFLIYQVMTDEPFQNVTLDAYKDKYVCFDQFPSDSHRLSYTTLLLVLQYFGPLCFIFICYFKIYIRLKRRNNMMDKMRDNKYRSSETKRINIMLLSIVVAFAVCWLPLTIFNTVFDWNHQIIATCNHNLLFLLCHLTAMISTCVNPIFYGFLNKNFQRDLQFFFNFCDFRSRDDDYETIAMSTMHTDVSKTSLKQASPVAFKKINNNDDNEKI

Streptococcus = assay: GAS UMAA2166 growth inhibition – luminescence, BacTiterGlo, counter-screen for streptokinase expression inhibitor project, dose response (AID 1915); type: functional, organism-based;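 also: potency for reduction of bacterial viability or growth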
[7] = viability of uninfected HEp-2 cells – cell-based, HTS, cytotoxicity control for RSV inhibitor project, dose response (AID 2410); type: functional; details: human respiratory syncytial virus
[8] = CCR5-tropic HIV-1 fusion blockers – cell-based, CCR5-tropic Env, dose response (AID 2279); type: functional
[9] = target: FAD-linked sulfhydryl oxidase ALR (Homo sapiens, UniProt P55789); assay: ALR-catalysed DTT oxidation blockers – biochemical, H2O2 detection, luminescence, cherry-pick, dose response (AID 493248)
FAD-linked sulfhydryl oxidase ALR, sequence (P55789 whole entry): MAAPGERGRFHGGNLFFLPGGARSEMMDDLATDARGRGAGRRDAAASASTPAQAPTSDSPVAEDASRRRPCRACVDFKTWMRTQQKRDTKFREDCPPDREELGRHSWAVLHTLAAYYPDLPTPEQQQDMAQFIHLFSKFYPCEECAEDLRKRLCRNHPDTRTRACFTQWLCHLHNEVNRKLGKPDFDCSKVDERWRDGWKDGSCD

Genome polyprotein = Genome polyprotein (dengue virus type 2, UniProt P29990); assay: flavivirus cap methylation enzyme inhibition – biochemical, confirmation dose response, primary screen (AID 588689); type: functional
Genome polyprotein, sequence (P29990 2492-3391 limits assumed): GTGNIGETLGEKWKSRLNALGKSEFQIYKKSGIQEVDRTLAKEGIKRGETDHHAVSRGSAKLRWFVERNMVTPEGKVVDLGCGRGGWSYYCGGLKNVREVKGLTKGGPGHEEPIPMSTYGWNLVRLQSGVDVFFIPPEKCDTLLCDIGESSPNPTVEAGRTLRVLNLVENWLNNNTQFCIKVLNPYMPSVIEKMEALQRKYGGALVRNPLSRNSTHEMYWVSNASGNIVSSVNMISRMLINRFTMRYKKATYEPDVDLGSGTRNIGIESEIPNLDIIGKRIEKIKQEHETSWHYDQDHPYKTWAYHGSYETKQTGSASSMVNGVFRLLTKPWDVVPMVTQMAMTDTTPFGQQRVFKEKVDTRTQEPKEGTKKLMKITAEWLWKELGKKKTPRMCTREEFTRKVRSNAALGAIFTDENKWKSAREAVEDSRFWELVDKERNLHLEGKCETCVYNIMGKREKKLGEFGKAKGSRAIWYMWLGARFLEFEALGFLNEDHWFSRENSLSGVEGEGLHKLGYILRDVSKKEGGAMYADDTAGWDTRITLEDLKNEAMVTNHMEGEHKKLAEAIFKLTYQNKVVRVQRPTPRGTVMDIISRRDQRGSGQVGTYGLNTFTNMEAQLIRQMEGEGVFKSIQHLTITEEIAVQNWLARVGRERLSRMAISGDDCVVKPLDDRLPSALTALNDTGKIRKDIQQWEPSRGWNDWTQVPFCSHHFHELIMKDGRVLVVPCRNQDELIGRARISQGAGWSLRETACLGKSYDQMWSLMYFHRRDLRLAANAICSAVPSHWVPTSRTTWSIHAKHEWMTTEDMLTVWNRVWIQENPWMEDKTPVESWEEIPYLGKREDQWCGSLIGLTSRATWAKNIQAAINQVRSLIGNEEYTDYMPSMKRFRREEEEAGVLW

[10] = target: T6, Long-chain-fatty-acid--AMP ligase FadD28 (Mycobacterium tuberculosis, UniProt P9WQ59); assay: Fluorescence polarization aasay to screen for inhibitors that compete for the binding of FadD28 to a bisubstrate Measured in Biochemical System Using Plate Reader - 2147-01_Inhibitor_Dose_CherryPick_Activity.; type: functional, Mycobacterium tuberculosis H37Rv
T6 sequence (P9WQ59 whole entry): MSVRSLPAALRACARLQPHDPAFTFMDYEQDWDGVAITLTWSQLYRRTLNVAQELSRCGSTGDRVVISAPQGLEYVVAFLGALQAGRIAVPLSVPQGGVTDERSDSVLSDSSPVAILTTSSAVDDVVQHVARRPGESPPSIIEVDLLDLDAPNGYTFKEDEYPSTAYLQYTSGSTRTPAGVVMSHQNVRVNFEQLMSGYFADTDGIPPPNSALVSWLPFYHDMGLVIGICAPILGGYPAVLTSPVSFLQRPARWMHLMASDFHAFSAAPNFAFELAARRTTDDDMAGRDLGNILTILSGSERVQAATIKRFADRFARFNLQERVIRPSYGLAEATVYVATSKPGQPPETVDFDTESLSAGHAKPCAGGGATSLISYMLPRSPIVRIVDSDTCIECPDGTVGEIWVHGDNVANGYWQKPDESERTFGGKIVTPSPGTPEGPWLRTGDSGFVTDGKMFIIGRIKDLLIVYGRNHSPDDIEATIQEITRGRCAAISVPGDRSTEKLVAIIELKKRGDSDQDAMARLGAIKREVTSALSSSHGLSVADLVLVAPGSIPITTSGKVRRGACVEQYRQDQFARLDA

Cytochrome P450 2D6 = Cytochrome P450 2D6 (Homo sapiens, UniProt P10635); assay: qHTS Assay for Inhibitors and Substrates of Cytochrome P450 2D6. [Related pubchem assays: 410 ]; type: ADME; details: read-out: Potency
Cytochrome P450 2D6, sequence (P10635 whole entry): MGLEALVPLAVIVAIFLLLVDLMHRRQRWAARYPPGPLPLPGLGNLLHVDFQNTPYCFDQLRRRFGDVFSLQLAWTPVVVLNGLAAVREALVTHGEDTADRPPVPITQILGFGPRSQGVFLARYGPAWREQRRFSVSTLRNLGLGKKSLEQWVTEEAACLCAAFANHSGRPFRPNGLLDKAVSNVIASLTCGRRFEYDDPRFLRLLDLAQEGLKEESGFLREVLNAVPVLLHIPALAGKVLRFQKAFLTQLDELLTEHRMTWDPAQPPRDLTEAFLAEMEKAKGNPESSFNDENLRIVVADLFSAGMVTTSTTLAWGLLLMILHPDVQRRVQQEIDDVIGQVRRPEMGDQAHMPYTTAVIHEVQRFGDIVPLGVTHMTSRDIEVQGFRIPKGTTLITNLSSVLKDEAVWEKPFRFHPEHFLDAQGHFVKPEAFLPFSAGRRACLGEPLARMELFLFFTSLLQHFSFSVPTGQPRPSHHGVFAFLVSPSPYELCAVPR

Lysosomal acid glucosylceramidase, sequence (P04062 whole entry): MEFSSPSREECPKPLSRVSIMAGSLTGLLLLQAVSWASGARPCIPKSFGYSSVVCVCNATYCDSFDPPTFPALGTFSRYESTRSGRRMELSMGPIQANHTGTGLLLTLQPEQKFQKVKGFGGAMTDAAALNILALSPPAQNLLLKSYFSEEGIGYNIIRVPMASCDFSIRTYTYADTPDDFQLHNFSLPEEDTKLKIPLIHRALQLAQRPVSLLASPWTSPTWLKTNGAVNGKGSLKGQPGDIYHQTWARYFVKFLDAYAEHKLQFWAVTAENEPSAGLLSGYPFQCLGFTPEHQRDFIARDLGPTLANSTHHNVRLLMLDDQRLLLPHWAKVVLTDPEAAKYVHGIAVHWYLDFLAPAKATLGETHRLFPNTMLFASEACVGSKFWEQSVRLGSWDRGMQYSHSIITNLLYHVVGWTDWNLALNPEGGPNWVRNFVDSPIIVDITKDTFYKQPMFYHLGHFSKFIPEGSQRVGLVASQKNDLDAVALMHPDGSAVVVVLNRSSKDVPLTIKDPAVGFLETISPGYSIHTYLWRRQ

CC(CS(=O)(=O)c1cccc2cccnc12)N1CCCCC1 (stereo not given)
EC50 [1]: > 50 µM (not active)

CCN1/C(=C\C=C(C(C)=O)C(C)=O)Sc2ccccc21
IC50 [2]: 33.9 µM (not active) | IC50 (Insulin-degrading enzyme): 8.83 µM (active) | EC50 [3]: 4.9 µM (active)

COc1ccc(C(=O)/C(C#N)=N/Nc2cccc([N+](=O)[O-])c2)cc1
EC50 [4]: 22.8 µM (active) | IC50 [5]: > 35 µM (not active) | EC50 (Streptokinase A): > 150 µM (not active) | IC50 [6]: > 35 µM (not active) | EC50 (Streptococcus): 94.3 µM (active)

O=C(O)c1cc(N/N=C/c2ccc(-c3ccccc3)cc2)ccc1Cl
CC50 [7]: 31.1 µM (active) | IC50 [8]: 11 µM (active) | AC50 [9]: 1.83 µM (active) | IC50 (Genome polyprotein): 61.5 µM (active) | AC50 [10]: 18.4 µM (active)

COc1ccc([C@@H]2CC(=O)c3c(O)cc(O)cc3O2)cc1O [HESPERETIN]
AC50 (Cytochrome P450 2D6): 39.8 µM (inconclusive)
